This passage reports IC50 results from US12565491B2, “(Isopropyl-triazolyl)pyridinyl-substituted benzooxazinone or benzothiazinone derivatives and use thereof” (HK INNO.N CORPORATION, priority 2018, dated 2026).

The structures appear in SMILES notation.

The test deals with T1, ASK-1 enzyme (Homo sapiens, UniProt Q99683).
T1 construct: purchased Signal Chem M13-11G-10
T1 sequence (Q99683 649-946 limits assumed): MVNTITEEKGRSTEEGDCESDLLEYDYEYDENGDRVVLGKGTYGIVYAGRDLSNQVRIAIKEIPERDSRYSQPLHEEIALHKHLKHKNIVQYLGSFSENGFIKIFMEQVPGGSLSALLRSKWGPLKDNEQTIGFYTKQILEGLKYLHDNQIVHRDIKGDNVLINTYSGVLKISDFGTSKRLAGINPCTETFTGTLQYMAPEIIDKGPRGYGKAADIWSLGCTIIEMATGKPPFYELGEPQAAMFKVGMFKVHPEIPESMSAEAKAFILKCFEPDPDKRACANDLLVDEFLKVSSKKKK
In words: Inhibitory ability against ASK-1 enzyme activity (ADP-Glo Kinase Assay). The test is classed as biochemical. The following applies: 250 μM ATP, MBP substrate, 30° C. for 40 minutes. The procedure:
Experimental Example 1: Assay of Inhibitory Ability Against ASK-1 Enzyme Activity (ADP-Glo™ Kinase Assay)
In order to evaluate the inhibitory ability of the compounds of Examples 1 to 25 against ASK-1 enzyme activity, the following experiment was carried out using ADP-Glo™ (Promega, Cat. No. V9101). Each of the compounds was prepared into a solution at concentrations of 0.32 nM, 1.6 nM, 8 nM, 40 nM, 200 nM, 1,000 nM by adding a kinase buffer solution (40 mM Tris, 20 mM MgCl2, 0.1 mg/mL bovine serum albumin in H2O). Subsequently, 250 μM of ATP (Promega, Cat. No. V915A) and 0.5 g/L of MBP substrate (Signal Chem, Cat. No. 42-51N) were added thereto, and the mixture was reacted at 30° C. for 40 minutes in the presence of 15 ng of ASK-1 enzyme (Signal Chem, Cat. No. M13-11G-10). Then, the ADP-Glo™ reagent and a kinase detection reagent were sequentially added thereto and reacted for 40 minutes and 10 minutes, respectively. After completion of the reaction, luminescence was measured using a Synergy™ NEO microplate reader (BioTEK, NEOB-1311189).
The inhibitory ability of the compounds of Examples 1 to 25 against ASK-1 enzyme activity was verified by analyzing data from the measured RLU values. Specifically, the inhibitory ability against ASK-1 enzyme activity was assessed by deriving the residual activity percentage of the ASK-1 enzyme in the samples treated with the compounds at the concentration to be tested, while using the RLU value of the sample not treated with the compounds as a 100% control.
As for `CCOC(C)n1cc(-c2ccc3c(c2)C(=O)N(c2cccc(-c4nncn4C(C)C)n2)CO3)cn1` (stereo not shown) [Example 6, 6-(1-(1-ethoxyethyl)-1H-pyrazol-4-yl)-3-(6-(4-isopropyl-4H-1,2,4-triazol-3-yl)pyridin-2-yl)-2,3-dihydro-4H-benzo[e][1,3]oxazin-4-one], the IC50 is 29.2 nM.

In the case of `CC(C)n1cnnc1-c1cccc(N2COc3ccc(Nc4nccc(C(F)F)n4)cc3C2=O)n1` [Example 10, 6-(4-(difluoromethyl)pyrimidin-2-ylamino)-3-(6-(4-isopropyl-4H-1,2,4-triazol-3-yl)pyridin-2-yl)-2,3-dihydro-4H-benzo[e][1,3]oxazin-4-one], the IC50 is 7.2 nM.

Regarding `CSc1ncc(-c2cc3c(cc2C)OCN(c2cccc(-c4nncn4C(C)C)n2)C3=O)cn1` [Example 17, 3-(6-(4-isopropyl-4H-1,2,4-triazol-3-yl)pyridin-2-yl)-7-methyl-6-(2-(methylthio)pyrimidin-5-yl)-2,3-dihydro-4H-benzo[e][1,3]oxazin-4-one], the half-inhibitory concentration (IC50) was 7.8 nM.

Consider `CC(C)n1cnnc1-c1cccc(N2COc3ccc(-c4ccc(C5(C#N)CC5)cc4)cc3C2=O)n1` [Example 12, 1-(4-(3-(6-(4-isopropyl-4H-1,2,4-triazol-3-yl)pyridin-2-yl)-4-oxo-3,4-dihydro-2H-benzo[e][1,3]oxazin-6-yl)phenyl) cyclopropanecarbonitrile], for which the concentration for half-maximal inhibition (IC50) came to 17 nM.

On to `CC(C)n1cnnc1-c1cccc(N2COc3ccc(-c4cnn(C(F)F)c4)cc3C2=O)n1` [Example 7, 6-(1-(difluoromethyl)-1H-pyrazol-4-yl)-3-(6-(4-isopropyl-4H-1,2,4-triazol-3-yl)pyridin-2-yl)-2,3-dihydro-4H-benzo[e][1,3]oxazin-4-one], for which the IC50 was determined as 33.1 nM.

On to `CC(C)n1cnnc1-c1cccc(N2COc3ccc(-c4cnn(CC5CC5)c4)cc3C2=O)n1` [Example 1, 6-(1-(cyclopropylmethyl)-1H-pyrazol-4-yl)-3-(6-(4-isopropyl-4H-1,2,4-triazol-3-yl)pyridin-2-yl)-2,3-dihydro-4H-benzo[e][1,3]oxazin-4-one], for which the IC50 amounted to 9.3 nM.

As to `CC(C)Cn1cc(-c2ccc3c(c2)C(=O)N(c2cccc(-c4nncn4C(C)C)n2)CO3)cn1` [Example 9, 6-(1-isobutyl-1H-pyrazol-4-yl)-3-(6-(4-isopropyl-4H-1,2,4-triazol-3-yl)pyridin-2-yl)-2,3-dihydro-4H-benzo[e][1,3]oxazin-4-one], the IC50 was 11 nM.

In the case of `CC(C)n1cnnc1-c1cccc(N2COc3ccc(-c4ccncc4)cc3C2=O)n1` [Example 3, 3-(6-(4-isopropyl-4H-1,2,4-triazol-3-yl)pyridin-2-yl)-6-(pyridin-4-yl)-2,3-dihydro-4H-benzo[e][1,3]oxazin-4-one], the IC50 amounted to 9.1 nM.

For `Cc1cc2c(cc1-c1cnn(C3CCOC3)c1)C(=O)N(c1cccc(-c3nncn3C(C)C)n1)CO2` (stereo not shown) [Example 18, 3-(6-(4-isopropyl-4H-1,2,4-triazol-3-yl)pyridin-2-yl)-7-methyl-6-(1-(tetrahydrofuran-3-yl)-1H-pyrazol-4-yl)-2,3-dihydro-4H-benzo[e][1,3]oxazin-4-one], the IC50 is 10.6 nM.

Consider `CC(C)n1cnnc1-c1cccc(N2COc3ccc(-c4ccc(Cn5cccn5)cc4)cc3C2=O)n1` [Example 13, 6-(4-((1H-pyrazol-1-yl)methyl)phenyl)-3-(6-(4-isopropyl-4H-1,2,4-triazol-3-yl)pyridin-2-yl)-2,3-dihydro-4H-benzo[e][1,3]oxazin-4-one], for which the IC50 came to 46.4 nM.

As to `Cc1cc2c(cc1-c1cnn(C(C)C)c1)C(=O)N(c1cccc(-c3nncn3C(C)C)n1)CO2` [Example 15, 6-(1-isopropyl-1H-pyrazol-4-yl)-3-(6-(4-isopropyl-4H-1,2,4-triazol-3-yl)pyridin-2-yl)-7-methyl-2,3-dihydro-4H-benzo[e][1,3]oxazin-4-one], the concentration for half-maximal inhibition (IC50) was 4.5 nM.

As to `Cc1cc2c(cc1-c1cncnc1)C(=O)N(c1cccc(-c3nncn3C(C)C)n1)CO2` [Example 16, 3-(6-(4-isopropyl-4H-1,2,4-triazol-3-yl)pyridin-2-yl)-7-methyl-6-(pyrimidin-5-yl)-2,3-dihydro-4H-benzo[e][1,3]oxazin-4-one], the IC50 was found to be 20 nM.

For the molecule `Cc1ccnc(Nc2ccc3c(c2)C(=O)N(c2cccc(-c4nncn4C(C)C)n2)CO3)n1` [Example 4, 3-(6-(4-isopropyl-4H-1,2,4-triazol-3-yl)pyridin-2-yl)-6-(4-methylpyrimidin-2-ylamino)-2,3-dihydro-4H-benzo[e][1,3]oxazin-4-one], the concentration for half-maximal inhibition (IC50) turned out to be 7.8 nM.

For the molecule `Cc1cc2c(cc1-c1cnn(CC3CC3)c1)C(=O)N(c1cccc(-c3nncn3C(C)C)n1)CO2` [Example 14, 6-(1-(cyclopropylmethyl)-1H-pyrazol-4-yl)-3-(6-(4-isopropyl-4H-1,2,4-triazol-3-yl)pyridin-2-yl)-7-methyl-2,3-dihydro-4H-benzo[e][1,3]oxazin-4-one], the half-inhibitory concentration (IC50) worked out at 4.4 nM.

Take `CC(C)n1cnnc1-c1cccc(N2CSc3ccc(-c4cnn(C5CC5)c4)cc3C2=O)n1` [Example 24, 6-(1-cyclopropyl-1H-pyrazol-4-yl)-3-(6-(4-isopropyl-4H-1,2,4-triazol-3-yl)pyridin-2-yl)-2,3-dihydro-4H-benzo[e][1,3]thiazin-4-one]: the IC50 worked out at 26.2 nM.

Turning to `CC(C)n1cnnc1-c1cccc(N2COc3ccc(-c4ccc(S(C)(=O)=O)cc4)cc3C2=O)n1` [Example 2, 3-(6-(4-isopropyl-4H-1,2,4-triazol-3-yl)pyridin-2-yl)-6-(4-(methylsulfonyl)phenyl)-2,3-dihydro-4H-benzo[e][1,3]oxazin-4-one], the half-maximal inhibitory concentration (IC50) came out at 50 nM.

Regarding `CCOC(C)n1cc(-c2cc3c(cc2C)OCN(c2cccc(-c4nncn4C(C)C)n2)C3=O)cn1` (stereo not shown) [Example 20, 6-(1-(1-ethoxyethyl)-1H-pyrazol-4-yl)-3-(6-(4-isopropyl-4H-1,2,4-triazol-3-yl)pyridin-2-yl)-7-methyl-2,3-dihydro-4H-benzo[e][1,3]oxazin-4-one], the IC50 was determined as 3.6 nM.

`CC(C)n1cnnc1-c1cccc(N2CSc3ccc(-c4cnn(CC5CC5)c4)cc3C2=O)n1` [Example 21, 6-(1-(cyclopropylmethyl)-1H-pyrazol-4-yl)-3-(6-(4-isopropyl-4H-1,2,4-triazol-3-yl)pyridin-2-yl)-2,3-dihydro-4H-benzo[e][1,3]thiazin-4-one]: the half-maximal inhibitory concentration (IC50) was found to be 7.3 nM.

As to `CC(C)n1cnnc1-c1cccc(N2COc3ccc(-c4cnn(C5CCOC5)c4)cc3C2=O)n1` (stereo not shown) [Example 5, 3-(6-(4-isopropyl-4H-1,2,4-triazol-3-yl)pyridin-2-yl)-6-(1-(tetrahydrofuran-3-yl)-1H-pyrazol-4-yl)-2,3-dihydro-4H-benzo[e][1,3]oxazin-4-one], the IC50 is 38.8 nM.

As to `CC(C)n1cnnc1-c1cccc(N2COc3ccc(-c4cnn(C5CC5)c4)cc3C2=O)n1` [Example 8, 6-(1-cyclopropyl-1H-pyrazol-4-yl)-3-(6-(4-isopropyl-4H-1,2,4-triazol-3-yl)pyridin-2-yl)-2,3-dihydro-4H-benzo[e][1,3]oxazin-4-one], the IC50 was determined as 13.8 nM.

Regarding `CC(C)n1cc(-c2ccc3c(c2)C(=O)N(c2cccc(-c4nncn4C(C)C)n2)CS3)cn1` [Example 22, 6-(1-isopropyl-1H-pyrazol-4-yl)-3-(6-(4-isopropyl-4H-1,2,4-triazol-3-yl)pyridin-2-yl)-2,3-dihydro-4H-benzo[e][1,3]thiazin-4-one], the IC50 is 6.1 nM.

For the molecule `Cc1ncc(-c2ccc3c(c2)C(=O)N(c2cccc(-c4nncn4C(C)C)n2)CS3)cn1` [Example 25, 3-(6-(4-isopropyl-4H-1,2,4-triazol-3-yl)pyridin-2-yl)-6-(2-methylpyrimidin-5-yl)-2,3-dihydro-4H-benzo[e][1,3]thiazin-4-one], the half-maximal inhibitory concentration (IC50) was 76.8 nM.

On to `CC(C)CCn1cc(-c2ccc3c(c2)C(=O)N(c2cccc(-c4nncn4C(C)C)n2)CO3)cn1` [Example 11, 6-(1-isopentyl-1H-pyrazol-4-yl)-3-(6-(4-isopropyl-4H-1,2,4-triazol-3-yl)pyridin-2-yl)-2,3-dihydro-4H-benzo[e][1,3]oxazin-4-one], for which the IC50 is 18.5 nM.

Consider `CC(C)n1cnnc1-c1cccc(N2COc3ccc(-n4cnc(C5CC5)c4)cc3C2=O)n1` [Example 19, 6-(4-cyclopropyl-1H-imidazol-1-yl)-3-(6-(4-isopropyl-4H-1,2,4-triazol-3-yl)pyridin-2-yl)-2,3-dihydro-4H-benzo[e][1,3]oxazin-4-one], for which the concentration for half-maximal inhibition (IC50) was 4 nM.

On to `CC(C)n1cnnc1-c1cccc(N2CSc3ccc(-c4cnc(C5CC5)nc4)cc3C2=O)n1` [Example 23, 6-(2-cyclopropylpyrimidin-5-yl)-3-(6-(4-isopropyl-4H-1,2,4-triazol-3-yl)pyridin-2-yl)-2,3-dihydro-4H-benzo[e][1,3]thiazin-4-one], for which the IC50 was 23.1 nM.

The term IC50 denotes the midpoint of a concentration-inhibition curve.
